Assay results as given in BigSolDB 2.1.

CC(=O)Nc1ccc(OC(=O)c2ccccc2OC(C)=O)cc1
solubility (mole fraction)
Details | 278.15 K | 283.15 K | 288.15 K | 293.15 K | 298.15 K | 303.15 K | 308.15 K | 313.15 K | 318.15 K | 323.15 K
in DMAc | 0.058 | 0.0623 | 0.0687 | 0.075 | 0.0814 | 0.0875 | 0.0954 | 0.103 | 0.112 | 0.12
in DMSO | – | – | – | 0.0385 | 0.0463 | 0.0544 | 0.0637 | 0.0743 | 0.0865 | 0.1
in methyl acetate | 0.0011 | 0.00138 | 0.00164 | 0.00199 | 0.00238 | 0.00289 | 0.00344 | 0.00412 | 0.00496 | 0.00602
in n-butyl acetate | 0.000482 | 0.000609 | 0.000727 | 0.000899 | 0.00106 | 0.0013 | 0.0016 | 0.00189 | 0.00229 | 0.00272
in n-pentyl acetate | 0.000309 | 0.000392 | 0.000509 | 0.000638 | 0.000794 | 0.000983 | 0.00121 | 0.00149 | 0.0018 | 0.00217
in n-propyl acetate | 0.00053 | 0.000653 | 0.000831 | 0.00104 | 0.00127 | 0.00154 | 0.00186 | 0.00221 | 0.00275 | 0.00324
